Results: paper PMC10482913, “A new class of anticancer activity with computational studies for a novel bioactive aminophosphonates based on pyrazole moiety” (Scientific Reports, 2023)
Where two headings read alike, the source gives them in different places.

Assays:
[1] = system: Epdermoid Carcinoma (HEP2); format: cell-based, human; conditions: among all compounds
Excerpt: (§1) The in vitro antitumor activity of the compounds under study in this research was investigated cell growth using the MTT assay, [31]. The human tumor cell lines that used to evaluate the activity are Human lung fibroblast (WI38), Colorectal carcinoma Colon cancer (HCT-116) and Epdermoid Carcinoma (HEP2). The MTT assay is a standard colorimetric assay that is used to measure cell growth. It is used to determine cytotoxicity of potential medicinal agents and other toxic materials. Detailed procedures for the MTT assay method is presented in the supporting information (Sect. S2). […]
(§2) Cytotoxicity Assay (Section S2)
The cell lines Human lung fibroblast (WI38), Colorectal carcinoma Colon cancer (HCT-116) and Epdermoid Carcinoma (HEP2) were used to determine the inhibitory effects of compounds on cell growth using the MTT assay. This colorimetric assay is based on the conversion of the yellow tetrazolium bromide (MTT) to a purple formazan derivative by mitochondrial succinate dehydrogenase in viable cells. Cell lines were cultured in RPMI-1640 medium with 10% fetal bovine serum. […]
5mg/ml was added and incubated for 4 h. […] The colorimetric assay is measured and recorded at absorbance of 570 nm using a plate reader (EXL 800, USA). The relative cell viability in percentage was calculated as (A570 of treated samples/A570 of untreated sample) X 100.

[2] = system: Human lung fibroblast normal cell line (WI38); assay: cells; format: cell-based
Excerpt: (§3) Finally, all the studied phosphonate compounds have moderate to weak cytotoxicity activity on the normal cell WI-38.
as §1, §2
(§4) The cell lines Human lung fibroblast (WI38), Colorectal carcinoma Colon cancer (HCT-116) and Epdermoid Carcinoma (HEP2) were used to determine the inhibitory effects of compounds on cell growth using the MTT assay. This colorimetric assay is based on the conversion of the yellow tetrazolium bromide (MTT) to a purple formazan derivative by mitochondrial succinate dehydrogenase in viable cells. Cell lines were cultured in RPMI-1640 medium with 10% fetal bovine serum. Antibiotics added were 100 units/ml penicillin and 100µg/ml streptomycin at 37 C in a 5% Co2 incubator. The cell lines were seedes in a 96-well plate at a density of 1.0x10^4 cells/well.
(§5) At 37 C for 48 h under 5% CO2. After incubation the cells were treated with different concentration of compounds and incubated for 24 h. After 24 h of drug treatment, 20 µl of MTT solution at […]
(§6) 5mg/ml was added and incubated for 4 h. Dimethyl sulfoxide (DMSO) in volume of 100 µl is added into each well to dissolve the purple formazan formed. The colorimetric assay is measured and recorded at absorbance of 570 nm using a plate reader (EXL 800, USA). The relative cell viability in percentage was calculated as (A570 of treated samples/A570 of untreated sample) X 100.

[3] = system: Colorectal carcinoma Colon cancer (HCT-116); assay: cells; format: cell-based, human; conditions: for IC50: Homo sapiens; for relative activity for colon carcinoma cells (HCT-116), in words: among all compounds
Excerpt: as §3, §1, §2, §4, §5, §6

[4] = WI-38, read-out: IC50 against normal cell line (WI38)
[5] = HCT-116, read-out: IC50 against colon carcinoma cells (HCT-116)
[6] = WI-38, Figure 6, unit inferred, read-out: IC50 against normal cell line (WI38)
[7] = HCT-116, Figure 4, unit inferred, read-out: IC50 against colon carcinoma cells (HCT-116)

In the case of `O=[N+]([O-])c1ccc(-c2cc(NC(c3ccc([N+](=O)[O-])cc3)P(=O)(Oc3ccccc3)Oc3ccccc3)n(-c3ccccc3)n2)cc1` (stereo not drawn) [Compound 4b, Diphenyl{(3-(4-nitrophenyl)-1-phenyl-1H-pyrazol-5-ylamino)(4-nitrophenyl)}methylphosphonate], the melting point is reported as 167 to 168 °C, the “relative activity for Epdermoid Carcinoma (HEP2), in words” value [1] is reported as “highest activity” and the IC50 [2, 4] is reported as 62.8 µM. The IC50 [3, 5] was 15.1 µM and the “relative activity for colon carcinoma cells (HCT-116), in words” value [3] was “strongest activity”.

`O=[N+]([O-])c1ccc(-c2cc(NC(c3cccc(O)c3)P(=O)(Oc3ccccc3)Oc3ccccc3)n(-c3ccccc3)n2)cc1` (stereo not drawn) [Compound 4a, Diphenyl{(3-(4-nitrophenyl)-1-phenyl-1H-pyrazol-5-ylamino)(3-hydroxyphenyl)}methylphosphonate] showed a melting point of 266 to 268 °C, an IC50 [2, 4] of 47.1 µM and an IC50 [3, 5] of 73.2 µM.

`CCOP(=O)(OCC)C(Nc1cc(-c2ccccc2)nn1-c1ccc([N+](=O)[O-])cc1[N+](=O)[O-])c1ccc(N(C)C)cc1` (stereo not drawn) [Compound 2f, Diethyl{(1-(2,4-dinitrophenyl)-3-phenyl-1H-pyrazol-5-ylamino)(4-N,Ndimethylaminophenyl)} methyl phosphonate] gave a melting point of 244 to 246 °C, an IC50 [2, 6] of 65.1 µM and an IC50 [3, 7] of 37.8 µM.

With `CCOP(=O)(OCC)C(Nc1cc(-c2ccc([N+](=O)[O-])cc2)nn1-c1ccccc1)c1cccc(Cl)c1` (stereo not drawn) [Compound 2c, Diethyl{(3-(4-nitrophenyl)-1-phenyl-1H-pyrazol-5-ylamino)(3-chlorophenyl)}methylphosphonate] the melting point was 150 to 152 °C, the IC50 [2, 6] was 29.7 µM and the IC50 [3, 7] was 45.7 µM.

`CCOP(=O)(OCC)C(Nc1cc(-c2ccc([N+](=O)[O-])cc2)nn1-c1ccccc1)c1ccc(Cl)cc1` (stereo not drawn) [Compound 2e, Diethyl{(3-(4-nitrophenyl)-1-phenyl-1H-pyrazol-5-ylamino)(4-chlorophenyl)}methylphosphonate] showed a melting point of 298 to 300 °C, an IC50 [2, 6] of 86.3 µM and an IC50 [3, 7] of 57.3 µM.

With `CN(C)c1ccc(C(Nc2cc(-c3ccccc3)nn2-c2ccc([N+](=O)[O-])cc2[N+](=O)[O-])P(=O)(Oc2ccccc2)Oc2ccccc2)cc1` (stereo not drawn) [Compound 4d, Diphenyl{(1-(2,4-dinitrophenyl)-3-phenyl-1H-pyrazol-5-ylamino)(4-N,N-dimethylaminophenyl)} methyl phosphonate] the melting point was 212 to 214 °C, the “relative activity for Epdermoid Carcinoma (HEP2), in words” value [1] was “highest activity” and the IC50 [2, 4] was 78.3 µM. The IC50 [3, 5] was 26.1 µM.

`CCOP(=O)(OCC)C(Nc1cc(-c2ccc([N+](=O)[O-])cc2)nn1-c1ccccc1)c1ccc([N+](=O)[O-])cc1` (stereo not drawn) [Compound 2d, Diethyl{(3-(4-nitrophenyl)-1-phenyl-1H-pyrazol-5-ylamino)(4-nitrophenyl)}methylphosphonate] showed a melting point of 234 to 235 °C, an IC50 [2, 6] of 41.9 µM and an IC50 [3, 7] of 19.9 µM. For the same molecule, the “relative activity for colon carcinoma cells (HCT-116), in words” value [3] was “strongest activity”.

With `CCOP(=O)(OCC)C(Nc1cc(-c2ccc([N+](=O)[O-])cc2)nn1-c1ccccc1)c1cccc(O)c1` (stereo not drawn) [Compound 2b, Diethyl{(3-(4-nitrophenyl)-1-phenyl-1H-pyrazol-5-ylamino)(3-hydroxyphenyl)}methylphosphonate] the melting point was 252 to 254 °C, the IC50 [2, 6] was 55.7 µM and the IC50 [3, 7] was 84.5 µM.

`O=[N+]([O-])c1cccc(C(Nc2cc(-c3ccccc3)nn2-c2ccc([N+](=O)[O-])cc2[N+](=O)[O-])P(=O)(Oc2ccccc2)Oc2ccccc2)c1` (stereo not drawn) [Compound 4c, Diphenyl{(1-(2,4-dinitrophenyl)-3-phenyl-1H-pyrazol-5-ylamino)(3-nitrophenyl)}methyl phosphonate] gave an IC50 [2, 4] of over 100 µM and an IC50 [3, 5] of 51.3 µM.
